# Data as given in US20200354331A1, “ICARIIN DERIVATIVES” (H. LEE MOFFITT CANCER CENTER AND RESEARCH INSTITUTE, INC., priority 2014, published 2020).
# pIC50: −log10 of the molar value.
# Assays:
# [1] = tested on: NK cells and lymphokine-activated killer cells; details: 0.1 to 1.0 microgram/ml; tumor patients and healthy donors; cited from earlier work
# [2] = tested on: CD16 (FcγRIII) in CD3− CD56+ NK cells; test: Surface expression of CD16 in NK cells (flow cytometry); type: cell-based; details: PBMC from healthy donors, 48 hours treatment
# Description: FIG. 16 depicts the effect of ICA and ICT treatment on the surface expression of CD16 (FcγRIII) in NK cells. PBMC from healthy donors were treated with ICA/ICT or DMSO for 48 hours before analysis of CD16 expression by flow cytometry. NK cells were defined as CD3^− population and analyzed for the presence of CD16±CD56^+ cells as indicated.
# An alternative strategy can be performed by measuring NK-mediated antibody dependent cytotoxicity (ADCC) on SIGLEC3^+ MDSC. […] This is particularly of interest, because these Fc receptors can be critical for the development of ADCC, a cytotoxic function of NK cells. This function can involve the activation of NK cells through the ligation of CD16 with an antibody already bound to a target cell which can trigger the target cell to undergo apoptosis through the release of cytotoxic granules containing perform and granzymes. Humanized anti-SIGLEC3/CD33 antibodies can be used to apply a strategy to deplete MDSC by NK-mediated ADCC.
# [3] = tested on: MDS BMNCs; test: Colony formation (CFU-GM, BFU-E) in MethoCult H4434; type: cell-based; details: 20 uM for 48 h, 14 days culture
# Description: Bone marrow mononuclear cells (BMCs) from MDS patients were treated with 20 uM ICT for 48 h, and then seeded into MethoCult H4434 complete medium, the mixture is placed in 35-mm culture dishes (1×10^5 cells/each dish) and incubated at 37° C. in 5% CO2 for 14 days. After incubation, colonies of CFU-GM and BFU-E were identified and counted using an inverted light microscope, as shown in FIGS. 21A and 21B respectively. Each point represents the mean results of […], and each experimental point represents duplicate plates. Results are expressed as mean value±SD.
# [4] = tested on: Gr-1+CD11b+ MDSCs; test: Circulating Gr-1+CD11b+ MDSC in spleens of 4T1 tumor-bearing mice (flow cytometry); type: in vivo, BALB/c mice; details: 100 mg/kg i.p. three times weekly, vehicle 50.28%
# Description: FIG. 1 depicts the effects of ICA or ICT on the differentiation of MDSC. MDSC were isolated from spleens of 4T1 tumor-bearing mice. The maturation markers indicated were used to evaluate the differentiation and accumulation of MDSC in tumor bearing mice. Cell phenotype was evaluated by flow cytometry. One of the most striking features of ICA and ICT is their anti-tumorigenic ability in vivo. Seven days post-infection 1 cm diameter 4T1 tumors from 5 mice were established in BALB/c mice. Mice were treated with 100 mg/kg of ICA, ICT or vehicle (i.p.) three times weekly and tumor size (mean and SD) was monitored every 2 to 3 days. The percentages of double-positive Gr-1+CD11b′ MDSCs were determined for spleens of five mice per group. Cell phenotype was evaluated by flow cytometry. […] ICA or ICT on the differentiation of MDSC.
# [5] = tested on: IL-10 and TGFb; test: Expression of IL-10 and TGFb on LPS-treated PBMC (Q-PCR); type: cell-based; details: 48 hours, 20 μM
# Description: The relative expression of IL-10 and TGFb by Q-PCR are shown in FIGS. 19A and 19B, respectively. Healthy PBMC were cultured for 48 hours with 20 μM ICT and the gene expression measured by the DDCt method. The experimental control is PBMC treated with DMSO for 48 hours and the internal control was GAPDH. Error bars indicate the SEM of three separate donors/experiments.
# [6] = tested on: MCF-7; test: Apoptosis rates of ICT in cell lines; type: cell-based
# [7] = tested on: B16; test: Apoptosis rates of ICT in cell lines; type: cell-based
# [8] = tested on: 4T1; test: Apoptosis rates of ICT in cell lines; type: cell-based
# [9] = tested on: 4T1; test: IC50 of ICT in cell lines; type: cell-based; details: Mus musculus
# [10] = tested on: CD33 and iNOS; test: Expression of CD33 and iNOS on MDS-BM (flow cytometry, Q-PCR); type: cell-based; parameters: concentration or dose not given beside the values; details: 48 hours, 20 ICT
# [11] = tested on: U937; test: Apoptosis rates of ICT in cell lines; type: cell-based
# [12] = tested on: Bone marrow; test: Apoptosis rates of ICT in cell lines; type: cell-based
# [13] = tested on: Raji; test: IC50 of ICT in cell lines; type: cell-based; details: Homo sapiens
# [14] = tested on: PBMC; test: Apoptosis rates of ICT in cell lines; type: cell-based
# [15] = tested on: K562; test: IC50 of ICT in cell lines; type: cell-based; details: Homo sapiens
# [16] = tested on: K562; test: Apoptosis rates of ICT in cell lines; type: cell-based
# [17] = tested on: B16; test: IC50 of ICT in cell lines; type: cell-based; details: Mus musculus
# [18] = tested on: IL-10, TGFb, TNFa, ARG2 and NOS2; test: Expression of suppressive factors in PBMC (Q-PCR); type: cell-based; details: healthy PBMC, 48 hours, 20 μM
# Description: Healthy PBMC were cultured for 48 hours with 20 μM the gene expression of suppressive factors measured by the DDCt method. The experimental control is PBMC treated with DMSO and the internal control was GAPDH. Error bars indicate the SEM of three separate donors/experiments.
# [19] = tested on: Raji; test: Apoptosis rates of ICT in cell lines; type: cell-based
# [20] = tested on: MCF-7; test: IC50 of ICT in cell lines; type: cell-based; details: Homo sapiens, MCF7
smiles,measurement,setting,value
"COc1ccc(-c2oc3c(CC=C(C)C)c(O[C@@H]4O[C@H](CO)[C@@H](O)[C@H](O)[C@H]4O)cc(O)c3c(=O)c2O[C@@H]2O[C@@H](C)[C@H](O)[C@@H](O)[C@H]2O)cc1 [ICA, Icariin]",NK cell activity and LAK activity,[1],increase NK cell activity and lymphokine-activated killer cell (LAK) activity
same,"expression level of Fc receptor (CD16, FcγRIII) in NK cells",[2],increase the expression level of Fc receptor
same,"hematopoiesis of MDS BMNCs (CFU-GM, BFU-E colonies)",[3],increase the hematopoiesis of MDS BMNCs
same,percent of circulating MDSC,[4],33.35%
"COc1ccc(-c2oc3c(CCC(C)(C)O)c(O)cc(O)c3c(=O)c2O)cc1 [ICT, 3,5,7-trihydroxy-4′-methoxy-8-(3-hydroxy-3-methylbutyl)-flavone]",expression of IL-10 and TGFb on LPS-treated PBMC,[5],down-regulate the expression of the suppressive cytokine IL-10 and TGFb on LPS-treated PBMC
same,"expression level of Fc receptor (CD16, FcγRIII) in NK cells",[2],increase the expression level of Fc receptor
same,Apoptosis rates,"[6]; MCF-7, 5 μM",3.9%
same,Apoptosis rates,"[6]; MCF-7, 10 μM",4.1%
same,Apoptosis rates,"[6]; MCF-7, 20 μM",6.1%
same,"hematopoiesis of MDS BMNCs (CFU-GM, BFU-E colonies)",[3],increase the hematopoiesis of MDS BMNCs
same,Apoptosis rates,"[7]; B16, 5 μM",2.5%
same,Apoptosis rates,"[7]; B16, 10 μM",3.8%
same,Apoptosis rates,"[7]; B16, 20 μM",3.5%
same,Apoptosis rates,"[8]; 4T1, 5 μM",4.0%
same,Apoptosis rates,"[8]; 4T1, 10 μM",6.3%
same,Apoptosis rates,"[8]; 4T1, 20 μM",7.1%
same,pIC50,[9],5.17
same,expression of CD33 and iNOS on MDS-BM,[10],down-regulate the expression of CD33 and iNOS on MDS-BM
same,Apoptosis rates,"[11]; U937, 5 μM",3.1%
same,Apoptosis rates,"[11]; U937, 10 μM",2.6%
same,Apoptosis rates,"[11]; U937, 20 μM",2.7%
same,Apoptosis rates,[12]; 5 μM,2.7%
same,Apoptosis rates,[12]; 10 μM,4.3%
same,Apoptosis rates,[12]; 20 μM,4.8%
same,pIC50,[13],4.59
same,Apoptosis rates,[14]; 5 μM,4.6%
same,Apoptosis rates,[14]; 10 μM,5.5%
same,Apoptosis rates,[14]; 20 μM,6.9%
same,pIC50,[15],4.30
same,Apoptosis rates,"[16]; K562, 5 μM",5.5%
same,Apoptosis rates,"[16]; K562, 10 μM",6.7%
same,Apoptosis rates,"[16]; K562, 20 μM",7.8%
same,pIC50,[17],4.59
same,expression of suppressive factors in PBMC,[18],down-regulate the expression of suppressive factors in PBMC
same,Apoptosis rates,[19]; 5 μM,9.1%
same,Apoptosis rates,[19]; 10 μM,9.2%
same,Apoptosis rates,[19]; 20 μM,10.0%
same,percent of circulating MDSC,[4],26.97%
same,pIC50,[20],4.63
